Measured values: patent publication US20150139936A1, “DOSAGE AND ADMINISTRATION OF BISPECIFIC SCFV CONJUGATES IN COMBINATION WITH ANTI-CANCER THERAPEUTICS” (Merrimack Pharmaceuticals, Inc., priority 2012, published 2015)

Assays:
[1] = cited from earlier work
[2] = oral; cited from earlier work
[3] = Pre-clinical combination efficacy of MM-111; details: with lapatinib, trastuzumab, paclitaxel or docetaxel

Molecule: CC(=O)O[C@@]12CO[C@@H]1C[C@H](O)[C@@]1(C)C(=O)[C@H](O)C3=C(C)[C@@H](OC(=O)[C@H](O)[C@@H](NC(=O)OC(C)(C)C)c4ccccc4)C[C@@](O)([C@@H](OC(=O)c4ccccc4)[C@H]21)C3(C)C [docetaxel, 1,7β,10β-trihydroxy-9-oxo-5β,20-epoxytax-11-ene-2α,4,13α-triyl 4-acetate 2-benzoate 13-{(2R,3S)-3-[(tert-butoxycarbonyl)amino]-2-hydroxy-3-phenylpropanoate}]
- water solubility [1]: more water soluble than paclitaxel

Molecule: CS(=O)(=O)CCNCc1ccc(-c2ccc3ncnc(Nc4ccc(OCc5cccc(F)c5)c(Cl)c4)c3c2)o1 [lapatinib]
- bioavailability with food consumption [2]: increased

Molecule: MM-111: bispecific anti-ErbB2/anti-ErbB3 antibody, scFv HSA conjugate, SEQ ID NO:1
- combination effect (efficacy) [3]: additive
